Reference: patent US11512280B2, “Method for culturing spore-forming bacteria, and method for producing useful substance” (priority 2016, dated 2022)

Columns and labels:
Assay type in all cases: cell-based
[1] = tested on: Bacillus subtilis MBI-600; assay: Culture of Bacillus subtilis with sporulation-inhibiting and sporulation-accelerating substances, 45 hours (Example 2)
Method: (§1) Using a 500 ml Erlenmeyer flask (with baffles), each 100 ml of media listed in Table 1 was prepared and then autoclave sterilization was carried out. Note that glucose was separately sterilized and aseptically mixed in order to avoid Maillard reaction.
(§2) Test sections were set as described in Table 3. According to the conditions of each test section, the filter-sterilized aqueous solution of each sporulation-inhibiting substance was added aseptically to each medium. According to the conditions of each test section, one loopful of Bacillus subtilis MBI-600 was taken from a colony grown on a nutrient agar medium, inoculated, and then cultured with shaking at 30° C. and 150 rpm.
Sixteen (16) hours after the start of culture, each sporulation-accelerating substance was added according to the conditions of each test section, culture was continued. Forty-five (45) hours after the start of culture, culture was stopped.
(§3) Each of the thus obtained culture liquid was diluted 10-fold with sterile water, and then the bacterial cell concentration (vegetative cells and spores) and the sporulation rate (spore concentration/bacterial cell concentration) were measured using an optical microscope and a bacterial cell counter.

[2] = tested on: Bacillus thuringiensis NBRC 101235 strain; assay: Culture of Bacillus thuringiensis with sporulation-inhibiting substance, 40 hours (Example 3)
Method: as §1
as §2, with “According” for “Test sections were set as described in Table 3. According”, “thuringiensis NBRC 101235 strain” for “subtilis MBI-600”, “rpm for 40 hours.” for “rpm.”
as §3

[3] = tested on: Bacillus subtilis MBI-600; assay: Culture of Bacillus subtilis with sporulation-inhibiting substance, 64 hours (Example 1); settings: for Bacterial cell concentration / Spore concentration / Sporulation rate: 64 hours culture
Method: Using a 500 ml Erlenmeyer flask (with baffles), each 100 ml of media listed in Table 1 was prepared and then autoclave sterilization was carried out. Glucose was separately sterilized and aseptically mixed in order to avoid Maillard reaction.
as §2, with “According” for “Test sections were set as described in Table 3. According”, “One” for “According to the conditions of each test section, one”, “rpm for 64 hours.” for “rpm.”
as §3

[4] = sporulation-accelerating substance 3,000 ppm added at 16 hours, no inhibiting substance, 45 hours culture
[5] = 1.4 ppm plus decoyinine 200 ppm at 16 hours, 45 hours
[6] = 1.4 ppm, no accelerating substance, 45 hours

Compound: CC(=O)O.N [Ammonium acetate]
- bacterial cell concentration and sporulation rate as the amount of ammonium acetate added increased ([1]; lincomycin 0.5 ppm with ammonium acetate): increased
- spore productivity compared with test sections in which no such substance had been added ([1]; lincomycin 0.5 ppm with ammonium acetate added): significantly higher
- Bacterial cell concentration [1, 4]: 4.6e+09 mL⁻¹
- Spore concentration [1, 4]: 4.2e+09 mL⁻¹
- Sporulation rate [1, 4]: 91%

Compound: CC(O)C(=O)O.N (stereo not shown) [Ammonium lactate]
- sporulation rate compared with test sections in which no accelerating substance had been added ([1]; ammonium lactate added, regardless of the lincomycin concentration): improvement was observed
- spore productivity compared with test sections in which no such substance had been added ([1]; lincomycin 0.3 ppm and 0.5 ppm with ammonium lactate added): significantly higher
- Bacterial cell concentration [1, 4]: 5.2e+09 mL⁻¹
- Spore concentration [1, 4]: 4.8e+09 mL⁻¹
- Sporulation rate [1, 4]: 91%

Compound: O=C(N[C@H](CO)[C@H](O)c1ccc([N+](=O)[O-])cc1)C(Cl)Cl [Chloramphenicol]
- effect of inhibiting sporulation ([1]; 1.4 ppm): observed
- Bacterial cell concentration [1, 5]: 5.4e+09 mL⁻¹
- Spore concentration [1, 5]: 4.1e+09 mL⁻¹
- Sporulation rate [1, 5]: 76%
- Bacterial cell concentration [1, 6]: 5.4e+09 mL⁻¹
- Sporulation rate [1, 6]: 0%
- spore productivity compared with test sections in which no such substance had been added ([1]; chloramphenicol 1.4 ppm, both test sections (with and without decoyinine)): improved
- bacterial cell concentration and spore concentration ([2]; 2.0 ppm): tended to increase
- Bacterial cell concentration ([2]; 2.0 ppm, 40 hours culture): 1.6e+09 mL⁻¹
- Spore concentration ([2]; 2.0 ppm, 40 hours culture): 1.3e+09 mL⁻¹
- Sporulation rate ([2]; 2.0 ppm, 40 hours culture): 79%
- the growth and the effect of inhibiting sporulation ([2]; 6.0 ppm): confirmed
- Bacterial cell concentration ([2]; 6.0 ppm, 40 hours culture): 8e+06 mL⁻¹
- Sporulation rate ([2]; 6.0 ppm, 40 hours culture): 0%

Compound: C=C1O[C@@](CO)(n2cnc3c(N)ncnc32)[C@H](O)[C@@H]1O [Decoyinine]
- Sporulation rate ([1]; decoyinine added during culture in addition to chloramphenicol 1.4 ppm): improvement was observed

Compound: [H]/N=C(/N)N[C@H]1[C@H](O)[C@@H](O)[C@H](O[C@@H]2O[C@@H](C)[C@](O)(C=O)[C@H]2O[C@@H]2O[C@@H](CO)[C@H](O)[C@@H](O)[C@@H]2NC)[C@@H](N/C(N)=N\[H])[C@@H]1O [Streptomycin]
- effect of inhibiting sporulation ([3]; 12.5 ppm): not observed
- Bacterial cell concentration ([3]; 12.5 ppm added): 4.3e+09 mL⁻¹
- Spore concentration ([3]; 12.5 ppm added): 4.3e+09 mL⁻¹
- Sporulation rate ([3]; 12.5 ppm added): 100%
- effect of inhibiting sporulation ([3]; 15.0 ppm): observed
- Bacterial cell concentration ([3]; 15.0 ppm added): 5.5e+09 mL⁻¹
- Spore concentration ([3]; 15.0 ppm added): 3e+09 mL⁻¹
- Sporulation rate ([3]; 15.0 ppm added): 54%
- bacterial cell concentrations as the concentration of the substance increased ([3]; trend over tested concentrations): tended to increase
